Test results from patent US6350476B1, “Herbal chinese joint complex” (Shanxi Zhengzhon Pharmaceutical Co., Ltd., priority 2000, dated 2002).

Legend:
[1] = tested on: carrageenin-induced edematous footpad in mice; test: Animal Study 3: carrageenin-induced edematous footpad; type: in vivo; details: 0.15 g/kg gastrogavage once a day for 8 days
Protocol: (§1) The compositions used in these experiments were prepared by the Pharmaceutical Preparation Room of Taiyuan Rheumatoid Arthritis Hospital using the procedures outlined above. Distilled water was added to prepare a suspension of the density required for the tests.
(§2) Aspirin (99.6%) was manufactured by Nanjing Pharmacy. A 10% of gum acacia solution was added to prepare a suspension of the density required for the test.
(§3) Distilled water was used for the control groups.
This test was conducted according to the procedure established by Xu-Shu-Yun, Methodology of the Pharmacologic Experiments, The People's Public Health Publishing House, 717 (1991). Male mice were randomly assigned to one of four groups of ten mice each, each group weighing 22.5±2.1 g. Each group of mice was fed either water (control), aspirin (0.15 g/kg of body weight), or the composition disclosed in U.S. Pat. No. 5,908,628 (either 1.5 g or 3.0 g/kg of body weight) by means of gastrogavage, once a day for 8 days. On the eighth day, 1 hour after the gastrogavage, 0.1 ml of a 1.0% carrageenin solution was hypodermically injected into the right ankle joint. Using a volumometer, the volumes of the paw and ankle joints were measured 0.5, 1, 2, 3 and 4 hours after inflammation and the values were used to calculate a swelling value.

[2] = tested on: increased capillary permeability induced by I.P. 0.7 acetic acid in mice; test: Animal Study 5: capillary permeability induced by glacial acetic acid; type: in vivo; details: 0.15 g/kg gastrogavage, 20 minutes after injection
Protocol: as §1, §2, §3
This test was conducted according to the procedure established by Chen Qi, The People's Public Health House, 303 (1993). Mice were randomly assigned to one of 4 groups, each group having a total weight of 21.8±1.9 g and consisting of 5 male and 5 female mice each. Each group of mice was fed either water (control), aspirin (0.15 g/kg of body weight), or the composition disclosed in U.S. Pat. No. 5,908,628 (either 1.5 g or 3.0 g/kg of body weight) by means of gastrogavage. One hour after the gastrogavage, a solution consisting of 0.5% Evans blue and (I.P.) 0.7% glacial acetic acid 0.1 m/10 g (body weight) was hypodermically injected into the mice. I.P. densitometry values were collected 20 minutes after the injection.

[3] = tested on: writhing caused by injection of 0.5% acetic acid; test: Animal Study 8: writhing reaction caused by injection of 0.5% acetic acid; type: in vivo; details: mice, 0.2 g/kg gastrogavage
Protocol: as §1, §2, §3
This test measures the analgesic action of the composition disclosed in U.S. Pat. No. 5,908,628 on writhing caused by injection of 0.5% acetic acid according to the procedure established by Chen Qi. Methodology of Chinese Herbs Pharmacologic Research, The People's Public Health Publishing House, 378 (1993).
The mice are randomly divided into 4 groups, each of which consists of 10 male and 10 female mice, with the total weight of each group being 20.9±1.1 g. […] Pat. No. […] One hour after the gastrogavage, a solution of (I.P.) 0.5% acetic acid (0.2 ml/20 g) was injected into the mice. The number of writhing reactions was counted during the 30 minutes immediately following the injection.

[4] = tested on: inflammation of primary arthritis caused by injection of Freund's complete adjuvant (rat hind paw); test: Animal Study 2: primary arthritis caused by Freund's complete adjuvant, treatment one week after injection; type: in vivo; details: rats
Protocol: as §1, §2, §3
Male rats were randomly divided into four groups of ten rats each, with the total weight of each group being 172.5±8.0 g. The perimeters of the left and right rat hind paws were measured. 0.1 ml of Freund's complete adjuvant was intradermally injected into each rat's right hind paw to induce inflammation. One week after injection of Freund's complete adjuvant, each group of rats was fed either water (control), aspirin (0.15 g/kg of body weight), or the composition disclosed in U.S. Pat. No. 5,908,628 (either 1.5 g or 3.0 g/kg of body weight) by means of gastrogavage. The hind paws were observed and measured 1, 4 and 7 days after receiving treatments of either water, aspirin or the composition disclosed in U.S. Pat. No. 5,908,628. Results of the treatments were determined by measuring the degree of swelling of the injected versus non-injected hind paws, changes in body weight, the number of tubercles, and an overall visual score of the difference between the injected and non-injected paws. The visual score included observations on erythema of the ears and the swelling of the hind paws, ankle joints, and paw joints.

[5] = tested on: inflammation of primary arthritis caused by injection of Freund's complete adjuvant (rat hind paw); test: Animal Study 1: primary arthritis caused by Freund's complete adjuvant, treatment before injection; type: in vivo; details: rats, 0.15 g/kg gastrogavage once a day for 3 days
Protocol: as §1, §2, §3
Male rats were randomly divided into four groups of ten rats each, with the total weight of each group being 172.5±8.0 g. The perimeters of the rat hind paws were measured. Each group of rats was fed either water (control), aspirin (0.15 g/kg of body weight), or the composition disclosed in U.S. Pat. No. 5,908,628 (either 1.5 g or 3.0 g/kg of body weight) by means of gastrogavage, once a day for 3 days. On the third day, 1 hour after the gastrogavage, 0.1 ml of Freund's complete adjuvant was intradermally injected into each rat's right hind paw to induce inflammation. The perimeters of the left and right hind paws were measured 2, 4, 6, 24, 48 and 72 hours after inflammation.

[6] = tested on: fever caused by yeast injection; test: Animal Study 7: anti-pyretic action on pyrexial rat caused by injection of fresh yeast; type: in vivo; details: rats, 0.15 g/kg gastrogavage
Protocol: as §1, §2, §3
This test was conducted according to the procedure established by Chen Qi, The People's Public Health House, 271 (1993).
The rats were randomly divided into 4 groups, each group weighing 210.0±10.9 g and consisting of 5 male and 5 female rats each. Rats were maintained in the test environmental conditions for 3 days during which their anal temperatures were recorded twice daily. On the fourth day the anal temperature was measured every half hour. Next, a 15% solution of fresh yeast suspension (2 ml/100 g) was injected into the back of each rat. Anal temperature was measured 4 hours later. The rats whose temperatures rose above 1° C. were divided into 4 groups, each group consisting of 10 rats. Each group of rats was fed either water (control), aspirin (0.15 g/kg of body weight), or the composition disclosed in U.S. Pat. No. 5,908,628 (either 1.5 g or 3.0 g/kg of body weight) by means of gastrogavage. Anal temperatures were determined 1, 2, 3 and 4 hours after the gastrogavage.

[7] = tested on: hyperplasia of connective tissues (granulomatosis); test: Animal Study 6: granulomatosis induced by Cotton Pallet Method; type: in vivo; details: rats; 0.1 g/kg gastrogavage once daily for 8 days
Protocol: as §1, §2, §3
This test was conducted according to the procedure established by the Medication Dept. of the Public Health Ministry (Collection of Guiding Principles on Western Medicine's Pre-Clinical Research, 271 (1993)). Rats were randomly assigned to one of 4 groups, each group consisting of 8 rats with a total weight 157.8±9.0 g. The rats in each group were anesthetized, tiny incisions were cut on the left and right groins, and 10 mg of sterilized cotton was placed inside each cut. […] On the day following the last gastrogavage, the cotton and any granuloma deposits thereon were removed from the incisions, dried at a temperature of 60° C. for 12 hours, after which they were individually weighed. The weight of the granuloma deposits was calculated by subtracting […] (i.e., 10 mg). […] The Inhibitory Ratio is calculated as follows: […]

[8] = as little as; cited from earlier work

## CC(=O)Oc1ccccc1C(=O)O [Aspirin, acetylsalicylic acid]
[1]; 0.5 hr
  Degree of swelling of Hind Paw, 0.5 hr after injection: 0.08 ± 0.03 mL
[1]; 1 hr
  Degree of swelling of Hind Paw, 1 hr after injection: 0.12 ± 0.03 mL
[1]; 2 hr
  Degree of swelling of Hind Paw, 2 hr after injection: 0.03 ± 0.02 mL
[1]; 3 hr
  Degree of swelling of Hind Paw, 3 hr after injection: 0.01 ± 0.01 mL
[1]; 4 hr
  Degree of swelling of Hind Paw, 4 hr after injection: 0.01 ± 0.0 mL
[2]
  Evans blue (densitometry): 0.231 ± 0.07
[3]
  Analgesic Rate (%): 63.31%
[3]; 30 minutes following acetic acid injection
  Writhing Quantity: 24.4 ± 10.0
[4]; 0.15 g/kg
  No. of Tubercles: 1
  Visual Score: 1
[4]; 0.15 g/kg gastrogavage one week after adjuvant injection
  Swelling: 0.0 ± 0.57 mm
[5]; 2 h after inflammation
  Swelling Measurement, 2 h: 2.40 ± 1.08 mm
[5]; 4 h after inflammation
  Swelling Measurement, 4 h: 4.40 ± 1.57 mm
[5]; 6 h after inflammation
  Swelling Measurement, 6 h: 5.30 ± 1.34 mm
[5]; 24 h after inflammation
  Swelling Measurement, 24 h: 3.20 ± 0.92 mm
[5]; 48 h after inflammation
  Swelling Measurement, 48 h: 5.01 ± 1.92 mm
[5]; 72 h after inflammation
  Swelling Measurement, 72 h: 5.80 ± 1.75 mm
[6]; 1 hr after the gastrogavage
  Changes in Body Temperature after injection with yeast, 1 hr: 37.9 ± 0.9 °C
[6]; 2 hr after the gastrogavage
  Changes in Body Temperature after injection with yeast, 2 hr: 37.6 ± 0.9 °C
[6]; 3 hr after the gastrogavage
  Changes in Body Temperature after injection with yeast, 3 hr: 37.8 ± 1.0 °C
[6]; 4 hr after the gastrogavage
  Changes in Body Temperature after injection with yeast, 4 hr: 38.3 ± 0.7 °C
[7]
  Dry Weight of the granuloma: 10.1 ± 1.6 mg/100 g
  Inhibitory rate %: 17.89%

## COc1cc2c(c(OC)c1OC)-c1ccc(OC)c(=O)cc1[C@@H](NC(C)=O)CC2 [colchicine]
[8]
  smallest amount found to be fatal: 7 mg
